Our source for the Kd values is ChEMBL document CHEMBL1141615, “Targeting RNA with cysteine-constrained peptides” (Bioorg Med Chem Lett, 2008).

The assay in a line: Binding affinity to BIV transactivating response element RNA. Details: species or system Bovine immunodeficiency virus.

On to `C[C@@H](O)[C@@H]1NC(=O)[C@H](CO)NC(=O)[C@H](Cc2c[nH]c3ccccc23)NC(=O)[C@H](CCC(N)=O)NC(=O)[C@H](Cc2cnc[nH]2)NC(=O)[C@H]([C@@H](C)O)NC(=O)[C@@H](N)CSSC[C@H](C(N)=O)NC(=O)[C@H](CCCCN)NC1=O`, for which the Kd (as a rule, the concentration at which binding is half-saturated) was determined as 9.1 µM.

With `C[C@@H](O)[C@@H]1NC(=O)CNC(=O)[C@@H](N)CSSC[C@H](C(N)=O)NC(=O)[C@H](CCC(N)=O)NC(=O)[C@@H]2CCCN2C(=O)[C@H](Cc2c[nH]cn2)NC(=O)[C@H](Cc2cnc[nH]2)NC(=O)[C@H](Cc2c[nH]c3ccccc23)NC1=O`, binding was characterised by a dissociation constant (Kd) of 7.9 µM.
